Measured values reported in patent US20100234386A1, “QUINOXALINE DERIVATIVES AS PI3 KINASE INHIBITORS” (priority 2007, published 2010).

Target: T1, PI3Kα (Homo sapiens, UniProt P42336)
T1 construct: His
Experiment: PI3K Alpha Leadseeker SPA Assay
Assay type: biochemical
Conditions: in at least one experimental run; read-out: IC50 value against PI3Kα
Excerpt: PI3K Alpha Leadseeker SPA Assay
SPA imaging beads are microspheres containing scintillant which emit light in the red region of the visible spectrum. As a result, these beads are ideally suited to use with a CCD imager such as the Viewlux. The Leadseeker beads used in this system are polystyrene beads that have been coupled with polyethyleneimine. When added to the assay mixture, the beads absorb both the substrate (PIP2) and product (PIP3). Adsorbed P^33-PIP3 will cause an increase in signal, measured as ADUs (analog to digital units). This protocol details the use of the PEI-PS Leadseeker beads for assays using His-p110/p85 PI3K alpha.
The compounds are serially diluted (3-fold in 100% DMSO) across the plate from column 1 to column 12 and column 13 to column 24 and leave column 6 and 18 containing only DMSO to yield 11 concentrations for each test compound.
The assay buffer contains MOPS (pH 6.5), CHAPS, and DTT. PI3K alpha and PIP2 (L-alpha-D-myo-Phosphatidylinositol 4,5-bisphosphate[PI(4,5)P2]3-O-phospho linked, D(+)-sn-1,2-di-O-octanoylglyceryl, CellSignals # 901) are mixed and incubated in the plate with compound for 30 min prior to starting the reaction with the addition of P^33-ATP and MgCl2 (reagents added using Zoom). […] PEI-PS Leadseeker beads in PBS/EDTA/CHAPS are added (by Multidrop) to quench the reaction, and the plates are allowed to incubate for at least one hour (typically overnight) before centrifugation. The signal is determined using a Viewlux detector and is then imported into curve fitting software (Activity Base) for construction of concentration response curves. The percent inhibition of activity is calculated relative to high controls (C1, 0.1 μl DMSO in column 6, rows A-P)) and low controls (C2, 5 μl of 40 uM PIP2 in buffer in column 18, rows A-P) using, 100*(1−(U1−C2)/(C1−C2)). The concentration of test compound yielding 50% inhibition is determined using the equation, y=((Vmax*x)/(K+x))+Y2, where “K” was equal to the […]. The IC50 values are converted to pIC50 values, i.e., −log IC50 in Molar concentration.

T1 sequence (P42336 whole entry, species assumed): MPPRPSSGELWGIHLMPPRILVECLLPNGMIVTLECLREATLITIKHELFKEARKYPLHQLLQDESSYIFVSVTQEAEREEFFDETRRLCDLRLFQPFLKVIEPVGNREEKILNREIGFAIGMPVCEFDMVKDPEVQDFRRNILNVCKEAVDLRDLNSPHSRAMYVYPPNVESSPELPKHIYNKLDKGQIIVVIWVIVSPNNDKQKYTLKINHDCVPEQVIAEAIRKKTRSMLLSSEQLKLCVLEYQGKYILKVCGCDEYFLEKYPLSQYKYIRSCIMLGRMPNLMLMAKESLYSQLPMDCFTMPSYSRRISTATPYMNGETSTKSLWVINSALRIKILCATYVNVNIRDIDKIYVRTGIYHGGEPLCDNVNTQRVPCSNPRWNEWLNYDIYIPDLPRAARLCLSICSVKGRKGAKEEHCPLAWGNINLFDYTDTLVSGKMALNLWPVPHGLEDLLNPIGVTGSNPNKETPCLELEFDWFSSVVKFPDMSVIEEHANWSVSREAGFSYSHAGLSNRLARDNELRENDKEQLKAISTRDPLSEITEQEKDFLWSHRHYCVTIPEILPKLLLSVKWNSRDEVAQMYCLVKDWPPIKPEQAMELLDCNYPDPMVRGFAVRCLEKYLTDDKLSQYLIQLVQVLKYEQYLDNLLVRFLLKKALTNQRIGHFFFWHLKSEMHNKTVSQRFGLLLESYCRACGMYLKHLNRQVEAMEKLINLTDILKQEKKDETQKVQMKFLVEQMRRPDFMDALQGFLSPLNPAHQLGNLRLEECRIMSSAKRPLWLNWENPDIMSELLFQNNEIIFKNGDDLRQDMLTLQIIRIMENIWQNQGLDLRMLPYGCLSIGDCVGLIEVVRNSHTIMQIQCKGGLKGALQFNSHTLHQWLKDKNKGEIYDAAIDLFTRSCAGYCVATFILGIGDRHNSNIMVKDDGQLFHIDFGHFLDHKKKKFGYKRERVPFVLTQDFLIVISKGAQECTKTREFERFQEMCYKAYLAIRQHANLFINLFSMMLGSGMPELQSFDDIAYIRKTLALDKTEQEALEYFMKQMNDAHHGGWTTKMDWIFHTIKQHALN
T1 sequence (P27986 whole entry partner, species assumed): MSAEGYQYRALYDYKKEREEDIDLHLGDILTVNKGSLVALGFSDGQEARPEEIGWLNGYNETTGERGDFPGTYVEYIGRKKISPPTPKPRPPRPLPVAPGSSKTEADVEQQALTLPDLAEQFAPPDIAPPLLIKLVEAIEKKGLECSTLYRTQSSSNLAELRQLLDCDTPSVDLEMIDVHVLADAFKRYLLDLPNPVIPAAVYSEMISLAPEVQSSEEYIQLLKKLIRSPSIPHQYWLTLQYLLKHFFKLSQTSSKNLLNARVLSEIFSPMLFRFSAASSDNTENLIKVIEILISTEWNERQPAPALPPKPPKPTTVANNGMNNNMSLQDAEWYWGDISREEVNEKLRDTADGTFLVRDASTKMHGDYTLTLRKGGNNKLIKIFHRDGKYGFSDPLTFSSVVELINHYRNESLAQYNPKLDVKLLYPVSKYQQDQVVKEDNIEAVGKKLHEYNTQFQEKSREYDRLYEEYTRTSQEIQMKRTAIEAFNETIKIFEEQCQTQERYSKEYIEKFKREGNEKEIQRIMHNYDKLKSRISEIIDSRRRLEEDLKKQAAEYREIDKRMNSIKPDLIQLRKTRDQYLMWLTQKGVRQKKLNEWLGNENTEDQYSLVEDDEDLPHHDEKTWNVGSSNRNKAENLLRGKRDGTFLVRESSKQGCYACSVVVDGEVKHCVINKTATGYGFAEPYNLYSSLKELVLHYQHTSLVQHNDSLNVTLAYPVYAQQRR

Q: c1cc2ncc(N3CCOCC3)nc2cc1-c1cnc2[nH]ncc2c1 [Example 1, 2-(4-morpholinyl)-7-(1H-pyrazolo[3,4-b]pyridin-5-yl)quinoxaline] was tested. Which IC50 did it give?
A: 5 nM

Q: How did the IC50 turn out when COc1ccc(-c2ccc3ncc(N4CCOCC4)nc3c2)cn1 [Example 2] was run?
A: 100 nM

Q: How did the IC50 turn out when c1cc2cc(-c3ccc4ncc(N5CCOCC5)nc4c3)cnc2[nH]1 [Example 4] was run?
A: 50 nM

Q: Which IC50 does the source give for CCNc1cnc2ccc(-c3cnc(N)c(S(=O)(=O)N(C)C)c3)cc2n1 [Example 19] here?
A: 8 nM

Q: For NS(=O)(=O)c1cncc(-c2ccc3ncc(-c4ccncc4)nc3c2)c1 [Example 70], which IC50 is on record?
A: 200 nM
